The text below walks through data of US20180244611A1, “Modulators of the Cystic Fibrosis Transmembrane Conductance Regulator Protein and Methods of Use” (AbbVie S.à.r.l., priority 2017, published 2018).

The target of experiment [1] is T1, F508delCFTR (Homo sapiens, UniProt P13569, DEL508-508).
T1 construct: expressed in transfected cells; host or cells: CFBE41o- human lung-derived epithelial cells (CFBE41o-F508delCFTR-HRP), doxycycline-inducible
The experiment is described as follows: Cell Surface Expression-Horse Radish Peroxidase (CSE-HRP) assay, test compound with co-corrector.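 As to Maximum % activity (with co-corrector): percent of 2 µM positive control corrector over DMSO; co-corrector is that same compound.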 Particulars: with 2 μM co-corrector; for Maximum % activity (with co-corrector): maximum at any tested concentration, normalized to positive control. The experiment is classed as cell-based. An outline of the steps: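 Surface-expression read-out: luminol luminescence from an HRP tag in the fourth exofacial loop of F508delCFTR, in doxycycline-induced (0.5 μg/mL, 72 h) CFBE41o- cells. Compound plus 2 μM co-corrector added for 18-24 h at 33° C., 8-point 3-fold series up to 20 μM. EC50 from a sigmoidal fit with variable Hill slope, normalised to positive control, triplicate plates.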

Experiment [2] concerns the target T1, F508delCFTR. Description: Cell Surface Expression-Horse Radish Peroxidase (CSE-HRP) assay, test compound without co-corrector.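 As to Emax: percent of on-plate 2 µM positive control corrector response over DMSO.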 The experiment is classed as cell-based. The settings on record: for Emax: maximum at any tested concentration, normalized to positive control, without co-corrector; for EC50: test compound without co-corrector. An outline of the steps:
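Compound without co-corrector was tested at eight 3-fold concentrations, top 20 μM, for 18-24 h at 33° C on doxycycline-induced (0.5 μg/mL, 72 h) CFBE41o- F508delCFTR-HRP cells. After DPBS washes, luminol luminescence gave % activity relative to on-plate positive control minus DMSO; EC50 came from triplicate-plate sigmoidal fitting.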

T1 sequence (P13569 with tags, fused parts or gaps DEL508-508): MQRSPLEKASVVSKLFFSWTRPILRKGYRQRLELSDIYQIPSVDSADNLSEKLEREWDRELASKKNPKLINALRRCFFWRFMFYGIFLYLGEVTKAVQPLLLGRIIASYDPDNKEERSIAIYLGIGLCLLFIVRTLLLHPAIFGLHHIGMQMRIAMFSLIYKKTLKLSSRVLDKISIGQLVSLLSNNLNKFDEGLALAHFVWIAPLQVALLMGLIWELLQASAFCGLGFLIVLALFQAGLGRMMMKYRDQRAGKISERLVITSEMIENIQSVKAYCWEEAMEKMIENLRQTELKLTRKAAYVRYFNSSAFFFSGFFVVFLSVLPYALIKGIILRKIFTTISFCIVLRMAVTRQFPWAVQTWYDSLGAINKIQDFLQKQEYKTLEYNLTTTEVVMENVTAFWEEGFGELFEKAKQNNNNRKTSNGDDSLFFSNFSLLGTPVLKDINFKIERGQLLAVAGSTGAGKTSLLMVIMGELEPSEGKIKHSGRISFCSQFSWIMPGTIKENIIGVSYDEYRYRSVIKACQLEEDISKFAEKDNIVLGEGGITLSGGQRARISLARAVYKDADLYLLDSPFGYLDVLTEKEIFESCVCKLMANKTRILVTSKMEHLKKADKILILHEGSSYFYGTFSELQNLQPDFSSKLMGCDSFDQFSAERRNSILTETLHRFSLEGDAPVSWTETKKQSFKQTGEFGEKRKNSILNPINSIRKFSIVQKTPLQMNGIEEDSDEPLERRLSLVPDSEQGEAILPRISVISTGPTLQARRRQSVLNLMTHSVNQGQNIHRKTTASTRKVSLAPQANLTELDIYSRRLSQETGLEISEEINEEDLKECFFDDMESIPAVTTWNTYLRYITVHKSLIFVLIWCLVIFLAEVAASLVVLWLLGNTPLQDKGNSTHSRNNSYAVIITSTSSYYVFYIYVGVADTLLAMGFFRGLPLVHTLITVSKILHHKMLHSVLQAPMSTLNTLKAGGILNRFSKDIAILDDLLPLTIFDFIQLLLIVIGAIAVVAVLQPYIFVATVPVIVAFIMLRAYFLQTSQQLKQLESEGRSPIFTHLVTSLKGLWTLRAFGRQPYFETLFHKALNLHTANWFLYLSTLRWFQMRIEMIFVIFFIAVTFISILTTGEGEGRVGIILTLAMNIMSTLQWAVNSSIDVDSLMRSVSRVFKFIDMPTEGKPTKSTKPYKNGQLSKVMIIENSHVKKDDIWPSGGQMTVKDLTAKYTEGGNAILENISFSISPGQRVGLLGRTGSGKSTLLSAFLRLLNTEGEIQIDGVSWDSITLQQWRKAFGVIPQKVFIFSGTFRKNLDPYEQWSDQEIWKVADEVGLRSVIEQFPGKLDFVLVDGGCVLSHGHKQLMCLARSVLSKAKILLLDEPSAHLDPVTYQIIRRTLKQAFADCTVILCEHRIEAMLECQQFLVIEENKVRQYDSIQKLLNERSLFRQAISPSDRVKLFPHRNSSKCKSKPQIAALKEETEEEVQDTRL

The EC50 is the concentration that produces a half-maximal response. Higher therefore signals lower potency in that assay. Usually Emax stands for the greatest response seen or fitted, relative to the assay's reference. With `COc1cccc2c1CCC2C(=O)NS(=O)(=O)c1ccc(C)c([N+](=O)[O-])c1C` (stereo not drawn) [III-49], at F508delCFTR [1], the “Maximum % activity (with co-corrector)” value was “++ (≥150 and <350)”; the concentration for a half-maximal effect (EC50) lay in the range of 3 to 10 µM. On F508delCFTR [2], the Emax was below 50% and the 50% effective concentration (EC50) was at least 10 µM.
Consider `COc1cccc2c1CCC2C(=O)NS(=O)(=O)c1cc(C(=O)Nc2c(C)cccc2C)c(O)cc1Cl` (stereo not drawn) [III-50], for which, on F508delCFTR [1], the “Maximum % activity (with co-corrector)” value is on record as “+ (<150)” and the EC50 is at least 10 µM. At F508delCFTR [2], this compound returned an Emax below 50% and an EC50 of at least 10 µM.
`COc1cccc2c1CCC2C(=O)NS(=O)(=O)c1c(C)nn(CCCl)c1C` (stereo not drawn) [III-51]: on F508delCFTR [1], the “Maximum % activity (with co-corrector)” value is “+ (<150)” and the 50% effective concentration (EC50) was at least 10 µM. Also, on F508delCFTR [2], the maximal effect (Emax) is below 50% and the EC50 is at least 10 µM.
Turning to `CCN1CCC[C@H]1CNC(=O)c1cc(S(=O)(=O)NC(=O)C2CCc3c(OC)cccc32)ccc1OC` (stereo partly drawn) [III-52], at F508delCFTR [1], the “Maximum % activity (with co-corrector)” value is given as “+ (<150)” and the concentration giving a half-maximal response (EC50) is at least 10 µM. On F508delCFTR [2], this compound gave an Emax below 50% and an EC50 of at least 10 µM.
On to `CCOc1ccc2nc(S(=O)(=O)NC(=O)C3CCc4c(OC)cccc43)sc2c1` (stereo not drawn) [III-53], for which, at F508delCFTR [1], the “Maximum % activity (with co-corrector)” value is “+ (<150)” and the EC50 was at least 10 µM. At F508delCFTR [2], this compound showed an Emax below 50% and an EC50 of at least 10 µM.
Take `CCCCCC(=O)c1ccc(S(=O)(=O)NC(=O)C2CCc3c(OC)cccc32)cc1` (stereo not drawn) [III-54]: on F508delCFTR [1], the “Maximum % activity (with co-corrector)” value is listed as “+ (<150)” and the EC50 was at least 10 µM. At F508delCFTR [2], this compound came in with an Emax below 50% and a half-maximal effective concentration (EC50) of at least 10 µM.
As to `COc1cccc2c1CCC2C(=O)NS(=O)(=O)c1ccc(N2CCN(CC[C@@H]3OCCc4ccccc43)CC2)cc1` (stereo partly drawn) [III-55], on F508delCFTR [1], the “Maximum % activity (with co-corrector)” value is recorded as “+ (<150)” and the EC50 was in the range of 3 to 10 µM. Further, on F508delCFTR [2], the maximal response (Emax) was below 50% and the EC50 was at least 10 µM.
The matching figures for `COc1cccc2c1CCC2C(=O)NS(=O)(=O)c1ccccc1C(=O)OC(C)C` (stereo not drawn) [III-56]: “+++ (≥350)”, 3 to 10 µM, 50 to 150% and 3 to 10 µM.
As to `COc1cccc2c1CCC2C(=O)NS(=O)(=O)c1ccc(NCCC(C)(C)O)c([N+](=O)[O-])c1` (stereo not drawn) [III-57], at F508delCFTR [1], the “Maximum % activity (with co-corrector)” value is “+ (<150)” and the EC50 is at least 10 µM. On F508delCFTR [2], this compound yielded an Emax below 50% and an EC50 of at least 10 µM.
In the case of `COc1cccc2c1CCC2C(=O)NS(=O)(=O)c1cc(-c2nc3c([nH]2)c(=O)n(C)c(=O)n3C)ccc1Cl` (stereo not drawn) [III-58], at F508delCFTR [1], the “Maximum % activity (with co-corrector)” value was “++ (≥150 and <350)”; the concentration giving a half-maximal response (EC50) was 3 to 10 µM. Moreover, at F508delCFTR [2], the Emax is below 50% and the EC50 was in the range of 3 to 10 µM.
Take `COc1cccc2c1CCC2C(=O)NS(=O)(=O)c1nc2c(c(=O)n(C)c(=O)n2C)n1Cc1ccc(Cl)cc1` (stereo not drawn) [III-59]: at F508delCFTR [1], the “Maximum % activity (with co-corrector)” value is recorded as “+ (<150)” and the EC50 was at least 10 µM. Moreover, at F508delCFTR [2], the Emax was below 50% and the EC50 was at least 10 µM.
In the case of `COc1cccc2c1CCC2C(=O)NS(=O)(=O)c1nc2c(=O)n(C)c(=O)n(C)c2n1Cc1ccccc1` (stereo not drawn) [III-60], at F508delCFTR [1], the “Maximum % activity (with co-corrector)” value is “+ (<150)” and the EC50 was at least 10 µM. Moreover, on F508delCFTR [2], the maximal effect (Emax) was below 50% and the 50% effective concentration (EC50) is at least 10 µM.
Take `COc1cccc2c1CCC2C(=O)NS(=O)(=O)c1ccc(CN(C)C)cc1` (stereo not drawn) [III-61]: at F508delCFTR [1], the “Maximum % activity (with co-corrector)” value is listed as “+ (<150)” and the concentration giving a half-maximal response (EC50) is at least 10 µM. On F508delCFTR [2], this compound had an Emax below 50% and a concentration for a half-maximal effect (EC50) of at least 10 µM.
In the case of `COc1cccc2c1CCC2C(=O)NS(=O)(=O)c1cccc(F)c1C#N` (stereo not drawn) [III-62], on F508delCFTR [1], the “Maximum % activity (with co-corrector)” value is “+ (<150)” and the EC50 was in the range of 3 to 10 µM. In addition, at F508delCFTR [2], the maximum response (Emax) was below 50% and the EC50 was at least 10 µM.
The matching figures for `COc1cccc2c1CCC2C(=O)NS(=O)(=O)c1ccc(O)c([N+](=O)[O-])c1` (stereo not drawn) [III-63]: “+ (<150)”, at least 10 µM, below 50% and at least 10 µM.
For `COc1cccc2c1CCC2C(=O)NS(=O)(=O)c1cccc(C#N)c1` (stereo not drawn) [III-64], at F508delCFTR [1], the “Maximum % activity (with co-corrector)” value is “+ (<150)” and the 50% effective concentration (EC50) is at least 10 µM. On F508delCFTR [2], this compound displayed an Emax below 50% and an EC50 of at least 10 µM.
For `COc1cccc2c1CCC2C(=O)NS(=O)(=O)c1cncc(Br)c1` (stereo not drawn) [III-65], on F508delCFTR [1], the “Maximum % activity (with co-corrector)” value is given as “+ (<150)” and the EC50 is at least 10 µM. Moreover, on F508delCFTR [2], the Emax was below 50% and the concentration for a half-maximal effect (EC50) was at least 10 µM.
Take `COc1cccc2c1CCC2C(=O)NS(=O)(=O)c1ccc(O)nc1` (stereo not drawn) [III-66]: on F508delCFTR [1], the “Maximum % activity (with co-corrector)” value is recorded as “+ (<150)” and the half-maximal effective concentration (EC50) is at least 10 µM. Also, on F508delCFTR [2], the maximal effect (Emax) was below 50% and the concentration for a half-maximal effect (EC50) was at least 10 µM.
